Data reported in ChEMBL document CHEMBL5329214, “4-Arylidene curcumin derivatives in vitro inhibit α-Synuclein aggregation and disaggregate the preformed fibril” (Bioorg Med Chem, 2023).
Calls of active or inactive are those of the source. The calls are words filed in the database; no cut-off is given here.

Experiments:
Alpha-synuclein [1] = target: T1, Alpha-synuclein (Homo sapiens, UniProt P37840); test: Inhibition of alpha-Synuclein (unknown origin) aggregation incubated for 72 hrs by ThT-based fluorescence analysis
Alpha-synuclein [2] = target: T1, Alpha-synuclein; test: Inhibition of alpha-Synuclein (unknown origin) aggregation assessed as alteration in typical alpha-Syn "S" shaped aggregation kinetics by measuring weakening of primary nucleation in lag phase at 30 uM measured for 86 hrs by ThT-based fluorescence analysis
Alpha-synuclein [3] = target: T1, Alpha-synuclein; test: Inhibition of alpha-Synuclein (unknown origin) aggregation assessed as alteration in typical alpha-Syn "S" shaped aggregation kinetics by measuring reduction in oligomeric nuclei in lag phase at 30 uM measured for 86 hrs by ThT-based fluorescence analysis
Alpha-synuclein [4] = target: T1, Alpha-synuclein; test: Inhibition of alpha-Synuclein (unknown origin) aggregation assessed as alteration in typical alpha-Syn "S" shaped aggregation kinetics by measuring reduction in aggregation rate in elongation phase at 30 uM measured for 86 hrs by ThT-based fluorescence analysis

Row | SMILES | IC50 (Alpha-synuclein [1]) [µM] | inhibition (Alpha-synuclein [2]) | inhibition (Alpha-synuclein [3]) | inhibition (Alpha-synuclein [4])
1 | COc1cc(/C=C/C(=O)CC(=O)/C=C/c2ccc(O)c(OC)c2)ccc1O [CURCUMIN] | 3.3 |  |  | 
2 | COc1cc(/C=C/C(=O)C(=Cc2ccc(O)cc2)C(=O)/C=C/c2ccc(O)c(OC)c2)ccc1O | 4.39 | Active | Active | Active
